pIC50: −log10 of the molar value. Several values for one entry are separate records, joined by “and”; a condition that tells them apart may be missing. Equal values may be shown once. Read-outs that look alike come from different tables or passages of the source. One block for each compound: values may come before it. Where a SMILES comes first, the peptide text is derived from it. Where no end group is shown, it is not given here.
Assays:
[1] = molecular target: T1, human TPO-R (Homo sapiens, UniProt P40238); assay: thrombopoietin dependent cell proliferation assay, TPO-R transfected Ba/F3 cells (MTT); format: cell-based; details: for EC50: Table 9, read-out: EC50 (nM) Prolif.
T1 construct: transfected with full length human TPO-R; expressed in transfected cells; host or cells: murine Ba/F3 cells
T1 sequence (P40238 26-635): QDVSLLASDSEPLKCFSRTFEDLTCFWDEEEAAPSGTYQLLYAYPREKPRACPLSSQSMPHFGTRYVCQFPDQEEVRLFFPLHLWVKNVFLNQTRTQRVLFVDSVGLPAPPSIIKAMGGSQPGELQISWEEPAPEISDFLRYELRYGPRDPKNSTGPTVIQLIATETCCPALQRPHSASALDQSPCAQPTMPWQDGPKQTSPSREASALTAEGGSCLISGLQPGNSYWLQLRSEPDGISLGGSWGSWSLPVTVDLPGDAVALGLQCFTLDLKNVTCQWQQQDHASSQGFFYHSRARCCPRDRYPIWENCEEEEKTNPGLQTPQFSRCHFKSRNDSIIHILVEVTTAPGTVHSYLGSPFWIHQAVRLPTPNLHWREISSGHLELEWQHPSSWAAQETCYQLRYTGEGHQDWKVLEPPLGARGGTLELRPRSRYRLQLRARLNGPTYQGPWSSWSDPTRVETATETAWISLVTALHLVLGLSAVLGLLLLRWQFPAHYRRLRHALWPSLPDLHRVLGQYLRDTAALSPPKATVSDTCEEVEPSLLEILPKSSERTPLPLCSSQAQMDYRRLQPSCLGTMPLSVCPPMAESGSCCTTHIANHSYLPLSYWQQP
Description: Bioactivity of the peptides can be measured using a thrombopoietin dependent cell proliferation assay. Murine IL-3 dependent Ba/F3 cells were transfected with full length human TPO-R. In the absence of IL-3 (WEHI-3 conditioned media), these cells are dependent on TPO for proliferation.
The cells were grown in complete RPMI-10 media, containing 10% WEHI-3 conditioned media, then washed twice in PBS, resuspended in media which lacked WEHI-3 conditioned media, and added to wells containing dilutions of peptide or TPO at 2×10^4 cells/well. The cells were incubated for 48 hours at 37° C. in a humidified 5% Co2 atmosphere and metabolic activity was assayed by the reduction of MTT to formazan, with absorbance at 570 nm measured on an ELISA plate reader.

[2] = molecular target: T2, TPO-R (Homo sapiens, UniProt P40238); assay: competition binding assay: MBP-TPO156 binding to immobilized TPO-R (ELISA)
T2 construct: made in house
T2 sequence (P40238 26-491 limits assumed): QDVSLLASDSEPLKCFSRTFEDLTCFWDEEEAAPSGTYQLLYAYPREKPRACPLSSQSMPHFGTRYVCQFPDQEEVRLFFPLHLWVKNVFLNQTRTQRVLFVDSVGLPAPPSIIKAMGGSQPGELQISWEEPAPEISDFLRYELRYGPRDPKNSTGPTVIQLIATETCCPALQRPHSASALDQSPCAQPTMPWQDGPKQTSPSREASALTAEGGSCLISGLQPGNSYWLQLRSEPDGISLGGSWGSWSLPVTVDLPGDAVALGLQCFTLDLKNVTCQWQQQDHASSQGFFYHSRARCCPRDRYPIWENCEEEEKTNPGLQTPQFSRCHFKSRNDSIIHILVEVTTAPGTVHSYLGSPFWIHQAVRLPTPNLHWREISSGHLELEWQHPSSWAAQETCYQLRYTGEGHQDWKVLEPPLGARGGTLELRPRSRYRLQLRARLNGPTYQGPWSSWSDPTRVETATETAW
Description: A variety of methods can be used to evaluate IC50 values. For example, an equilibrium binding ELISA assay, using either MBP-TPO or lacI-peptide tracer, was used to determine whether the peptides inhibit the binding of TPO to the extracellular domain of the TPO receptor. Typically, the IC50 value were determined using the free peptide. The IC50value can be determined using the free peptide, which optionally can be C-terminally amidated, or can be prepared as an ester or other carboxy amide.
Binding affinities of chemically synthesized peptides for TPO-R were measured in a competition binding assay. The wells of a microtiter plate were coated with 1 mg streptavidin, blocked with PBS/1% BSA, followed by 50 ng of biotinylated anti-receptor immobilizing antibody (Ab179). The wells were then treated with a 1:10 dilution of soluble TPO-R harvest. Various concentrations of peptide or peptide mimetic were mixed with a constant amount of a truncated form of TPO consisting of residues 1–156 fused to the C-terminus of maltose binding protein (MBP-TPO156). The peptide MBP-TPO156 mixtures were added to the TPO-R coated wells, incubated for 2 hours at 4° C. and then washed with PBS. The amount of MBP-TPO156 that was bound at equilibrium was measured by adding a rabbit anti-sera directed against MBP, followed by alkaline phosphatase conjugated goat anti-rabbit IgG. The amount of alkaline phosphatase in each well was then determined using standard methods.
The assay is conducted over a range of peptide concentrations and the results are graphed such that the y axis represents the amount of bound MBP-TPO156 and the x axis represents the concentration of peptide or peptide mimetic.

[3] = test system: marrow cells; assay: mouse marrow cells in liquid culture, AChE-staining megakaryocytes; format: cell-based, Balb/C mice
Description: To assess the feasibility of mice as a convenient test species, several in vitro experiments, designed to measure the activity of the test compounds on the mouse receptor, have been done. First, marrow cells, harvested from the femurs of 8 to 9 week one Balb/C mice, were incubated for 7 days in liquid culture with either rhuTPO or various concentrations of the test peptides. At the end of the incubation period, the cultures were concentrated by Cytospin, stained for acetylcholinesterase (AChE, a diagnostic of mouse megakaryocytes), and counted by microscopic analysis. One (1) nM rhuTPO gave rise to the outgrowth of very large (>40 um) non-adherent cells that stain for AChE. These cells appear to be mature megakaryocytes. From an initial seeding of 10^6 total marrow cells/ml (in 50 ml cultures) an estimated 1 to 2×10^6 megakaryocytes developed. This response to TPO was designated as “maximal”. Control cultures containing no added growth factors produced very few AChE-positive cells. […] This finding was the first evidence that this peptide family is active on the murine receptor. In a second experiment, marrow cells were harvested and cultured in semi-solid medium (methylcellulose) containing either no factors, 1 nM rhuTPO, or 10 uM Peptide A. After 7 days in culture, colonies of large cell (presumed to be megakaryocytes) were counted and grouped into small colonies (3–5 cells) or large colonies (greater than 6 cells). TPO and the test peptides both produced substantially more colonies of both sized than did the negative control cultures.

[4] = test system: marrow cells; assay: marrow cells in semi-solid medium (methylcellulose), colonies of large cells; format: cell-based, Balb/C mice; details: 1 nM TPO; 7 days in methylcellulose; replicate cultures
Description: To assess the feasibility of mice as a convenient test species, several in vitro experiments, designed to measure the activity of the test compounds on the mouse receptor, have been done. First, marrow cells, harvested from the femurs of 8 to 9 week one Balb/C mice, were incubated for 7 days in liquid culture with either rhuTPO or various concentrations of the test peptides. At the end of the incubation period, the cultures were concentrated by Cytospin, stained for acetylcholinesterase (AChE, a diagnostic of mouse megakaryocytes), and counted by microscopic analysis. One (1) nM rhuTPO gave rise to the outgrowth of very large (>40 um) non-adherent cells that stain for AChE. These cells appear to be mature megakaryocytes. From an initial seeding of 10^6 total marrow cells/ml (in 50 ml cultures) an estimated 1 to 2×10^6 megakaryocytes developed. This response to TPO was designated as “maximal”. Control cultures containing no added growth factors produced very few AChE-positive cells. […] In a second experiment, marrow cells were harvested and cultured in semi-solid medium (methylcellulose) containing either no factors, 1 nM rhuTPO, or 10 uM Peptide A. After 7 days in culture, colonies of large cell (presumed to be megakaryocytes) were counted and grouped into small colonies (3–5 cells) or large colonies (greater than 6 cells). […]

[5] = Table 3, free peptide, read-out: Affinity (IC50)

- EC50 [1]: ≤ 500 nM
Compound: CC[C@H](C)[C@@H]1NC(=O)[C@@H](N)CSSC[C@@H](C(N)=O)NC(=O)[C@H](C)NC(=O)[C@H](CCCNC(=N)N)NC(=O)[C@H](C)NC(=O)[C@H](C)NC(=O)[C@H](CC(C)C)NC(=O)[C@H](Cc2c[nH]c3ccccc23)NC(=O)[C@H](CCC(N)=O)NC(=O)[C@H](CCCNC(=N)N)NC(=O)[C@H](CC(C)C)NC(=O)[C@H]([C@@H](C)O)NC(=O)[C@@H]2CCCN2C(=O)CNC(=O)[C@H](CCC(=O)O)NC1=O (HELM PEPTIDE1{C.I.E.G.P.T.L.R.Q.W.L.A.A.R.A.C.[am]}$PEPTIDE1,PEPTIDE1,1:R3-16:R3$$$V2.0)

- pIC50 ([2]; Table 6, read-out: IC50): ≥ 6.30
Compound: CC[C@@H]1NC(=O)[C@H]([C@@H](C)CC)NC(=O)[C@H](Cc2c[nH]c3ccccc23)NC(=O)[C@H](CCC(=O)O)NC(=O)[C@H](CCCNC(=N)N)NC(=O)[C@H](CC(C)C)NC(=O)[C@H]([C@@H](C)O)NC(=O)[C@@H]2CCCN2C(=O)CNC(=O)[C@H](CC(=O)O)NC(=O)[C@H](C)NC(=O)CSC[C@@H](C(N)=O)NC(=O)[C@H](C(c2ccccc2)c2ccccc2)NC1=O [S,F - Abu, DiPh-Ala] (HELM PEPTIDE1{[O=C(C[*:3])[*:2]].A.D.G.P.T.L.R.E.W.I.[Abu].[O=C([C@@H](N[*:1])C(c1ccccc1)c1ccccc1)[*:2]].C.[am]}$PEPTIDE1,PEPTIDE1,1:R3-14:R3$$$V2.0; C-terminus assumed)

- pIC50 ([2]; Table 9, read-out: IC50): ≥ 6.30
- EC50 [1]: ≤ 500 nM
Compound: H-IEGPTLRQWLAARA-NH2

- pIC50 [2, 5]: ≥ 6.30
Compound: LAIEGPTLRQWLHGNGRDT [L A I E G P T L R Q W L H G N G R D T]

- pIC50 [2, 5]: ≥ 6.30
Compound: SIEGPTLREWLTSRTPHS [S I E G P T L R E W L T S R T P H S]

- pIC50 [2, 5]: ≥ 6.30
Compound: TIKGPTLRQWLKSREHTS [T I K G P T L R Q W L K S R E H T S]

More lines, now with the values behind:

Compound: CC[C@H](C)[C@@H]1NC(=O)[C@H](Cc2c[nH]c3ccccc23)NC(=O)[C@H](CCC(=O)O)NC(=O)[C@H](CCCNC(=N)N)NC(=O)[C@H](CC(C)C)NC(=O)[C@H]([C@@H](C)O)NC(=O)[C@@H]2CCCN2C(=O)CNC(=O)[C@H](CC(=O)O)NC(=O)[C@H](C)NC(=O)CSC[C@@H](C(N)=O)NC(=O)[C@H](C(c2ccccc2)c2ccccc2)NC(=O)[C@H](CO)NC1=O [F - DiPh-Ala] (HELM PEPTIDE1{[O=C(C[*:3])[*:2]].A.D.G.P.T.L.R.E.W.I.S.[O=C([C@@H](N[*:1])C(c1ccccc1)c1ccccc1)[*:2]].C.[am]}$PEPTIDE1,PEPTIDE1,1:R3-14:R3$$$V2.0; C-terminus assumed)
- pIC50 ([2]; Table 6, read-out: IC50): ≥ 6.30

Compound: AF 12885 with streptavidin (SA): complexed biotinylated peptide: G G C A D G P T L R E W I S F C G G K (Biotin) preincubated with streptavidin, 4:1 molar ratio
- potency of pre-formed streptavidin complex relative to the free peptide ([1]; peptide preincubated with streptavidin at 4:1 molar ratio, FIG. 2): approximately 10 times

Compound: GNADGPTLRQWLEGRRPKN [G N A D G P T L R Q W L E G R R P K N]
- pIC50 [2, 5]: ≥ 6.30

Compound: GPTLRQWL [G P T L R Q W L]
- pIC50 [2, 5]: < 3.70

Compound: S.A. alone: streptavidin alone [reference compound]
- Response (AChE-staining megakaryocytes) ([3]; concentration tested 1000 nM (putative 1:4 complex), 7 days, maximal = compared to recombinant human TPO, 25–30% ACE staining cells): none

Compound: TPO (R & D): recombinant human TPO
- megakaryocytes developed (estimated) ([3]; 1 nM rhuTPO, initial seeding 10^6 total marrow cells/ml in 50 ml cultures, 7 days): 1 to 2×10^6
- Response (AChE-staining megakaryocytes) ([3]; concentration tested 1 nM, 7 days liquid culture): “maximal”
- large colonies, 6–12 large cells [4]: 6 and 1 and 8 and 3
- small colonies, 3–5 large cells [4]: 15 and 12 and 16 and 13

Source: US7091311B2, “Peptides and compounds that bind to a receptor” (SmithKline Beecham Corporation, priority 1996, dated 2006)
